The supplement of paper PMC9663587

Tests used:
THZ1 [1] = compound: T1, CN(C)C/C=C/C(=O)Nc1ccc(C(=O)Nc2cccc(Nc3ncc(Cl)c(-c4c[nH]c5ccccc45)n3)c2)cc1 [THZ1]; assay: GR value, 72 h; higher = faster growth (1 = untreated, <0 = killing);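 further: breast cancer and non-malignant breast epithelial lines, nine half-log doses, viable cells counted by Hoechst and LIVE/DEAD dye imaging versus time-zero plates and DMSO controls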
THZ531 = compound: CN(C)C/C=C/C(=O)Nc1ccc(C(=O)N2CCC[C@@H](Nc3ncc(Cl)c(-c4c[nH]c5ccccc45)n3)C2)cc1 [THZ531]; assay: as above
Flavopiridol [2] = compound: T2, CN1CC[C@H](c2c(O)cc(O)c3c(=O)cc(-c4ccccc4Cl)oc23)[C@H](O)C1 [Flavopiridol]; assay: as above
[3] = compound: CC(=O)c1c(C)c2cnc(Nc3ccc(N4CCNCC4)cn3)nc2n(C2CCCC2)c1=O; assay: as above
THZ1 [4] = compound: T1, THZ1; assay: increase in dead-cell fraction, 72 h; higher = more death;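 further: breast cancer cell lines in 384-well plates, stained with Hoechst plus LIVE/DEAD far red dye and imaged, cells above an LDR intensity threshold counted dead, Hoechst-negative corpses included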
[5] = compound: CCc1cnn2c(NCc3ccc[n+]([O-])c3)cc(N3CCCC[C@H]3CCO)nc12; assay: as above
[6] = compound: CCN1CCN(Cc2ccc(Nc3ncc(F)c(-c4cc(F)c5nc(C)n(C(C)C)c5c4)n3)nc2)CC1; assay: as above
BSJ-03-123 = compound: CC(=O)c1c(C)c2cnc(Nc3ccc(N4CCN(CCOCCOCCOCCNC(=O)COc5cccc6c5C(=O)N(C5CCC(=O)NC5=O)C6=O)CC4)cn3)nc2n(C2CCCC2)c1=O [BSJ-03-123]; assay: as above
Neratinib/HKI272 = compound: CCOc1cc2ncc(C#N)c(Nc3ccc(OCc4ccccn4)c(Cl)c3)c2cc1NC(=O)/C=C/CN(C)C [Neratinib/HKI272]; assay: as above
LEE011/Ribociclib = compound: CN(C)C(=O)c1cc2cnc(Nc3ccc(N4CCNCC4)cn3)nc2n1C1CCCC1 [LEE011/Ribociclib]; assay: as above
Flavopiridol [7] = compound: T2, Flavopiridol; assay: as above
[8] = compound: CC(=O)c1c(C)c2cnc(Nc3ccc(N4CCNCC4)cn3)nc2n(C2CCCC2)c1=O; assay: as above

MDAMB175VII
GR value (THZ1 [1]; 0.0001 µM): 0.829 GR | GR value (THZ1 [1]; 0.0003162 µM): 1.05 GR | GR value (THZ1 [1]; 0.001 µM): 1.01 GR | GR value (THZ1 [1]; 0.003162 µM): 0.843 GR | GR value (THZ1 [1]; 0.01 µM): 0.736 GR | GR value (THZ1 [1]; 0.03162 µM): 0.515 GR | GR value (THZ1 [1]; 0.1 µM): -0.0075 GR | GR value (THZ1 [1]; 0.3162 µM): -0.159 GR | GR value (THZ1 [1]; 1 µM): -0.44 GR | GR value (THZ531; 0.0001 µM): 0.885 GR | GR value (THZ531; 0.0003162 µM): 0.884 GR | GR value (THZ531; 0.001 µM): 0.841 GR | GR value (THZ531; 0.003162 µM): 0.919 GR | GR value (THZ531; 0.01 µM): 1 GR | GR value (THZ531; 0.03162 µM): 0.677 GR | GR value (THZ531; 0.1 µM): -0.409 GR | GR value (THZ531; 0.3162 µM): -0.673 GR | GR value (THZ531; 1 µM): -0.403 GR | GR value (Flavopiridol [2]; 0.0001 µM): 0.962 GR | GR value (Flavopiridol [2]; 0.0003162 µM): 1 GR | GR value (Flavopiridol [2]; 0.001 µM): 0.765 GR | GR value (Flavopiridol [2]; 0.003162 µM): 0.721 GR | GR value (Flavopiridol [2]; 0.01 µM): 0.675 GR | GR value (Flavopiridol [2]; 0.03162 µM): 0.748 GR | GR value (Flavopiridol [2]; 0.1 µM): 0.442 GR | GR value (Flavopiridol [2]; 0.3162 µM): -0.175 GR | GR value (Flavopiridol [2]; 1 µM): -0.302 GR | GR value ([3]; 0.0003162 µM): 0.695 GR | GR value ([3]; 0.001 µM): 0.582 GR | GR value ([3]; 0.003162 µM): 0.689 GR | GR value ([3]; 0.01 µM): 0.453 GR | GR value ([3]; 0.03162 µM): 0.156 GR | GR value ([3]; 0.1 µM): -0.0684 GR | GR value ([3]; 0.3162 µM): -0.0381 GR | GR value ([3]; 1 µM): -0.0455 GR | GR value ([3]; 3.162 µM): -0.158 GR | increase in dead-cell fraction (THZ1 [4]; 0.0001 µM): 0.0012 | increase in dead-cell fraction (THZ1 [4]; 0.0003162 µM): -0.0011 | increase in dead-cell fraction (THZ1 [4]; 0.001 µM): -0.0032 | increase in dead-cell fraction (THZ1 [4]; 0.003162 µM): -0.0005 | increase in dead-cell fraction (THZ1 [4]; 0.01 µM): 0.0034 | increase in dead-cell fraction (THZ1 [4]; 0.03162 µM): 0.0153 | increase in dead-cell fraction (THZ1 [4]; 0.1 µM): 0.0349 | increase in dead-cell fraction (THZ1 [4]; 0.3162 µM): 0.0573 | increase in dead-cell fraction (THZ1 [4]; 1 µM): 0.0912 | increase in dead-cell fraction ([5]; 0.0001 µM): -0.004 | increase in dead-cell fraction ([5]; 0.0003162 µM): -0.0015 | increase in dead-cell fraction ([5]; 0.001 µM): -0.0018 | increase in dead-cell fraction ([5]; 0.003162 µM): -0.0039 | increase in dead-cell fraction ([5]; 0.01 µM): 0.001 | increase in dead-cell fraction ([5]; 0.03162 µM): 0.116 | increase in dead-cell fraction ([5]; 0.1 µM): 0.0618 | increase in dead-cell fraction ([5]; 0.3162 µM): 0.0494 | increase in dead-cell fraction ([5]; 1 µM): 0.0562 | increase in dead-cell fraction ([6]; 0.001 µM): -0.0013 | increase in dead-cell fraction ([6]; 0.003162 µM): -0.0015 | increase in dead-cell fraction ([6]; 0.01 µM): 0.0094 | increase in dead-cell fraction ([6]; 0.03162 µM): 0.0188 | increase in dead-cell fraction ([6]; 0.1 µM): 0.0085 | increase in dead-cell fraction ([6]; 0.3162 µM): 0.013 | increase in dead-cell fraction ([6]; 1 µM): 0.0044 | increase in dead-cell fraction ([6]; 3.162 µM): 0.0131 | increase in dead-cell fraction ([6]; 10 µM): 0.0317 | increase in dead-cell fraction (BSJ-03-123; 0.001 µM): 0.0049 | increase in dead-cell fraction (BSJ-03-123; 0.003162 µM): 0.0003 | increase in dead-cell fraction (BSJ-03-123; 0.01 µM): 0.0001 | increase in dead-cell fraction (BSJ-03-123; 0.03162 µM): 0.0082 | increase in dead-cell fraction (BSJ-03-123; 0.1 µM): 0.0009 | increase in dead-cell fraction (BSJ-03-123; 0.3162 µM): 0.0035 | increase in dead-cell fraction (BSJ-03-123; 1 µM): 0.0093 | increase in dead-cell fraction (BSJ-03-123; 3.162 µM): 0.009 | increase in dead-cell fraction (BSJ-03-123; 10 µM): 0.0139 | increase in dead-cell fraction (Neratinib/HKI272; 0.0003162 µM): -0.0063 | increase in dead-cell fraction (Neratinib/HKI272; 0.001 µM): -0.0069 | increase in dead-cell fraction (Neratinib/HKI272; 0.003162 µM): 0.0132 | increase in dead-cell fraction (Neratinib/HKI272; 0.01 µM): 0.0578 | increase in dead-cell fraction (Neratinib/HKI272; 0.03162 µM): 0.214 | increase in dead-cell fraction (Neratinib/HKI272; 0.1 µM): 0.276 | increase in dead-cell fraction (Neratinib/HKI272; 0.3162 µM): 0.406 | increase in dead-cell fraction (Neratinib/HKI272; 1 µM): 0.44 | increase in dead-cell fraction (Neratinib/HKI272; 3.162 µM): 0.49 | increase in dead-cell fraction (LEE011/Ribociclib; 0.001 µM): 0.0066 | increase in dead-cell fraction (LEE011/Ribociclib; 0.003162 µM): 0.0124 | increase in dead-cell fraction (LEE011/Ribociclib; 0.01 µM): 0.0047 | increase in dead-cell fraction (LEE011/Ribociclib; 0.03162 µM): 0.0118 | increase in dead-cell fraction (LEE011/Ribociclib; 0.1 µM): 0.0182 | increase in dead-cell fraction (LEE011/Ribociclib; 0.3162 µM): 0.0102 | increase in dead-cell fraction (LEE011/Ribociclib; 1 µM): 0.0154 | increase in dead-cell fraction (LEE011/Ribociclib; 3.162 µM): 0.0181 | increase in dead-cell fraction (LEE011/Ribociclib; 10 µM): 0.0148 | increase in dead-cell fraction (Flavopiridol [7]; 0.0001 µM): -0.0018 | increase in dead-cell fraction (Flavopiridol [7]; 0.0003162 µM): -0.0019 | increase in dead-cell fraction (Flavopiridol [7]; 0.001 µM): 0.0003 | increase in dead-cell fraction (Flavopiridol [7]; 0.003162 µM): 0.0018 | increase in dead-cell fraction (Flavopiridol [7]; 0.01 µM): 0.0067 | increase in dead-cell fraction (Flavopiridol [7]; 0.03162 µM): -0.0026 | increase in dead-cell fraction (Flavopiridol [7]; 0.1 µM): 0.0081 | increase in dead-cell fraction (Flavopiridol [7]; 0.3162 µM): 0.0294 | increase in dead-cell fraction (Flavopiridol [7]; 1 µM): 0.0685 | increase in dead-cell fraction ([8]; 0.0003162 µM): 0.0035 | increase in dead-cell fraction ([8]; 0.001 µM): 0.0034 | increase in dead-cell fraction ([8]; 0.003162 µM): -0.0018 | increase in dead-cell fraction ([8]; 0.01 µM): 0.0077 | increase in dead-cell fraction ([8]; 0.03162 µM): 0.0116 | increase in dead-cell fraction ([8]; 0.1 µM): 0.0214 | increase in dead-cell fraction ([8]; 0.3162 µM): 0.0115 | increase in dead-cell fraction ([8]; 1 µM): 0.0097 | increase in dead-cell fraction ([8]; 3.162 µM): 0.0212
